Consider 51 molecules from patent EP1900728A1 (Genecare Research Institute Co., Ltd, priority 2005, dated 2006).

The structures appear in SMILES notation. pIC50: −log10 of the molar value. Like-named read-outs stand apart in the source and are kept apart here. Bounds are passed on as bounds.

Experiment [1] has as its system ICAM-1 expression in HT-29 cells. The experiment is described as follows: Measurement of ICAM-1 expressing activity (TNFα-induced ICAM-1 expression, cell ELISA). It is filed as cell-based. Conditions: Homo sapiens, Table 6, cell activity inhibition test by method (3), read-out: EVALUATION (IC50 class, inhibition of cell activity). In outline: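 HT-29 cells pretreated with compound (0.5% DMSO final) for 30 min at 37°C, then stimulated with 30 ng/mL human TNFα for 4 h. Surface ICAM-1 measured by cell ELISA on methanol-fixed cells: anti-ICAM-1 plus POD secondary, TMBZ substrate, absorbance at 450 nm.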

In experiment [2] the target is T1, IκBα ubiquitinating enzyme (SCF complex: ROC1, Cullin1, Skp1, His-TrCP1; with E1, UbcH5b) (Homo sapiens, UniProt P62877+P63208+Q13616+Q9Y297).
T1 construct: His (polyhistidine); made in house; host or cells: insect cells (baculovirus) for the SCF complex and His-E1; E. coli for His-UBCH5b
The experiment is described as follows: Measurement of ubiquitinating enzyme activity (IκBα ubiquitination, time-resolved fluorescence with Eu(K)-labeled ubiquitin and XL665-labeled anti-GST antibody). Format: biochemical. The method, boiled down:
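Human SCF complex with E1 and UbcH5b ubiquitinated GST-IκBα pre-phosphorylated by IKKβ (2 mM ATP, pH 7.4, 1 h, RT), with Eu(K)-ubiquitin, 30 min RT. Stopped with EDTA, XL665 anti-GST added for 2 h; 665/620 nm TR-FRET ratio. % inhibition versus no-compound control and no-SCF blank gave IC50.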

Where [3] appears, read: enzyme activity inhibition test, method (1), Table 5, read-out: EVALUATION

T1 sequence (Q9Y297 whole entry): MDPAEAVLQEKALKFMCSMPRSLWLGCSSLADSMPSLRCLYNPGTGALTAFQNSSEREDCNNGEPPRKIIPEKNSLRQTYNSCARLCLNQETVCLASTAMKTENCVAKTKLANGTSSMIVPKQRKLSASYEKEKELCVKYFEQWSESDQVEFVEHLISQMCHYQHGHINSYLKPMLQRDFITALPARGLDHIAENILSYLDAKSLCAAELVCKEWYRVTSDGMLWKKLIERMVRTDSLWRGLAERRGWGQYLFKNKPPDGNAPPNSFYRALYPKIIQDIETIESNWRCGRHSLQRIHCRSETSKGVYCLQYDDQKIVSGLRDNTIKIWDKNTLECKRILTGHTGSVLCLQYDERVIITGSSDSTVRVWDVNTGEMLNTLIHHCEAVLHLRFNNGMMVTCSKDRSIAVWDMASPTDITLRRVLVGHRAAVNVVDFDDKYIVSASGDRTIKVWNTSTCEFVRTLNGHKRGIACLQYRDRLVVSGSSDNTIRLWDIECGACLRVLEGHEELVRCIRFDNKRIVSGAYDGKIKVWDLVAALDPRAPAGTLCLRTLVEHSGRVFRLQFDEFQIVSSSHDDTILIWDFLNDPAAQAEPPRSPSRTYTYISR
T1 sequence (Q13616 whole entry): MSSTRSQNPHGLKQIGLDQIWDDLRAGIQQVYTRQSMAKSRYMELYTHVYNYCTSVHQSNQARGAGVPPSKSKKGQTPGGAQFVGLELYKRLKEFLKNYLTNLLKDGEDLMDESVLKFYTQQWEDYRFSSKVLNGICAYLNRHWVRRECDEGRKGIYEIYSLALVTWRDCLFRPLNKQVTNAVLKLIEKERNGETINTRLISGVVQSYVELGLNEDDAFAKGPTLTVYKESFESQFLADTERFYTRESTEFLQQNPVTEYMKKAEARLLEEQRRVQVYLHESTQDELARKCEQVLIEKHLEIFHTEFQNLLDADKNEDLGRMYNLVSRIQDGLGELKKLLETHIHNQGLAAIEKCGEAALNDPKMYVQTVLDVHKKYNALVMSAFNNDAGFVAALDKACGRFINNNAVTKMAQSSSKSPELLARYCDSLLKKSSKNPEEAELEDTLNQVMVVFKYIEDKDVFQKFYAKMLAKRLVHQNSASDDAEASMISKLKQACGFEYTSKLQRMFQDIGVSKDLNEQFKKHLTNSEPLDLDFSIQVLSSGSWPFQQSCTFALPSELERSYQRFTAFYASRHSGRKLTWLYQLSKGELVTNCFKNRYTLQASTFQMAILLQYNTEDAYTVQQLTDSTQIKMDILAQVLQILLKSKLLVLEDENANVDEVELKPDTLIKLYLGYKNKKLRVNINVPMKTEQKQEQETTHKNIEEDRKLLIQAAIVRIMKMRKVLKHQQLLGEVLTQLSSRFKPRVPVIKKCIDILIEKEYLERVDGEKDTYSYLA
T1 sequence (P63208 whole entry): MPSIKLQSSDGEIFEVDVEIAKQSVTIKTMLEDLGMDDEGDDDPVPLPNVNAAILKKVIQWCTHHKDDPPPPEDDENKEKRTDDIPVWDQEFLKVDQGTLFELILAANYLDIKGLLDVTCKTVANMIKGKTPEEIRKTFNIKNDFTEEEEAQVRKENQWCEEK
T1 sequence (P62877 whole entry): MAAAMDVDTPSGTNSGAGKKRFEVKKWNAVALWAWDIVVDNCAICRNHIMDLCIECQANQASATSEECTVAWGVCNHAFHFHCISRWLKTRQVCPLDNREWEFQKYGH

For `CC1=NN(c2ccc(C(=O)N(C)CCO)cc2)C(=O)/C1=C\c1ccc2c(c1)OCCO2` [Compound 412], the pIC50 in experiment [1] and in experiment [2] (setting [3]) was 4.70 to 5.00 each time.

For the molecule `Cn1cc(-c2ccc(/C=C3\C(=O)N(c4cccc(C(=O)O)c4)N=C3c3ccoc3)o2)cn1` [Compound 491], the pIC50 in experiment [1] was 4.70 to 5.00; in experiment [2] (setting [3]), greater than 5.00.

As to `O=C(O)c1ccc(N2N=C(c3ccoc3)/C(=C/c3ccc(-n4cncn4)cc3)C2=O)cc1` [Compound 252], the pIC50 was greater than 4.40 in experiment [1] and greater than 5.00 in experiment [2] (setting [3]).

Take `Cn1cc(-c2ccc(/C=C3\C(=O)N(c4ccc(C(=O)O)cc4)N=C3Cc3ccccc3)o2)cn1` [Compound 518]: the pIC50 in experiment [1] and in experiment [2] (setting [3]) was 4.70 to 5.00 throughout.

Turning to `CC1=NN(c2ccc(S(N)(=O)=O)cc2)C(=O)/C1=C\c1ccc2c(c1)OCCO2` [Compound 108], the values for the pIC50 in experiment [1] and in experiment [2] (setting [3]) were greater than 4.40 and 4.70 to 5.00, respectively.

On to `COc1cc(/C=C2\C(=O)N(c3ccccn3)N=C2C)ccc1O` [Compound 129], for which the pIC50 was greater than 5.00 in experiment [1] and greater than 4.40 in experiment [2] (setting [3]).

For `COc1cc(/C=C2/C(=O)N(C3CCCCC3)N=C2C)ccc1O` [Compound 199], the pIC50 in experiment [1] was greater than 5.00; in experiment [2] (setting [3]), 4.70 to 5.00.

For `CCCCC1=NN(c2ccc(C(=O)O)cc2)C(=O)/C1=C\c1ccc2[nH]ccc2c1` [Compound 474], the values for the pIC50 in experiment [1] and in experiment [2] (setting [3]) were greater than 4.40 and greater than 5.00, respectively.

In the case of `CCCCC1=NN(c2ccc(C(=O)O)cc2)C(=O)/C1=C\c1ccc(CO)o1` [Compound 300], the pIC50 was 4.70 to 5.00 in experiment [1] and greater than 5.00 in experiment [2] (setting [3]).

As to `O=C(O)c1ccc(N2N=C(c3ccoc3)/C(=C/c3cccc4nccnc34)C2=O)cc1` [Compound 329], the pIC50 in experiment [1] and in experiment [2] (setting [3]) was 4.70 to 5.00 in each case.

As for `CCCCC1=NN(c2ccc(C(=O)O)cc2)C(=O)C1=Cc1ccc(O)c(OC)c1` [Compound 295], the pIC50 in experiment [1] and in experiment [2] was 4.70 to 5.00 each time.

In the case of `O=C(O)c1ccc(N2N=C(C3CC3)/C(=C/c3ccc4ccccc4c3)C2=O)cc1` [Compound 313], the pIC50 in experiment [1] is 4.70 to 5.00; in experiment [2] (setting [3]), greater than 5.00.

On to `COc1ccccc1C(=O)Nc1ccc(C=C2C(=O)N(c3ccc(S(N)(=O)=O)cc3)N=C2C)cc1` [Compound 228], for which the pIC50 in experiment [1] was 4.70 to 5.00; in experiment [2] it was greater than 5.00.

Consider `CC1=NN(c2ccc(C(=O)O)cc2)C(=O)/C1=C\c1ccc2c(ccn2Cc2cc(C)on2)c1` [Compound 496], for which the pIC50 was greater than 4.40 in experiment [1] and greater than 5.00 in experiment [2] (setting [3]).

For `O=C(O)c1ccc(N2N=C(C3CC3)/C(=C/c3ccc(CO)o3)C2=O)cc1` [Compound 316], the pIC50 in experiment [1] and in experiment [2] (setting [3]) was greater than 5.00 each time.

With `CC1=NN(c2ccc(C(=O)O)cc2)C(=O)/C1=C\c1ccc(-c2cccc(Cl)c2)o1` [Compound 454], the pIC50 is greater than 4.40 in experiment [1] and greater than 5.00 in experiment [2] (setting [3]).

With `O=C1/C(=C\c2ccc(CO)o2)C(c2ccoc2)=NN1c1ccccc1` [Compound 16], the pIC50 was 4.70 to 5.00 in experiment [1] and greater than 5.00 in experiment [2] (setting [3]).

Take `COCCC1=NN(c2ccc(C(=O)O)cc2)C(=O)/C1=C\c1ccc(-c2ccccc2F)o1` [Compound 522]: the pIC50 in experiment [1] and in experiment [2] (setting [3]) was greater than 5.00 each time.

As for `CC1=NN(c2ccccc2)C(=O)C1=Cc1ccc(Oc2ccccc2)cc1` [Compound 212], the pIC50 in experiment [1] and in experiment [2] was 4.70 to 5.00 each time.

On to `COC(=O)N1CCN(c2ccc(C=C3C(=O)N(c4ccc(C(=O)O)cc4)N=C3C)cc2)CC1` [Compound 254], for which the pIC50 in experiment [1] was greater than 4.40; in experiment [2] it was greater than 5.00.

Consider `O=C(O)c1cccc(N2N=C(c3ccoc3)/C(=C/c3ccc(N4CCCC4)cc3)C2=O)c1` [Compound 478], for which the pIC50 in experiment [1] and in experiment [2] (setting [3]) was 4.70 to 5.00 each time.

For `COc1cc(/C=C2\C(=O)N(c3ccc(C(=O)O)cc3)N=C2Cc2ccccc2)ccc1OCc1ccccc1` [Compound 265], the pIC50 in experiment [1] and in experiment [2] (setting [3]) was 4.70 to 5.00 in each case.

For the molecule `CC1=NN(c2cccc(S(N)(=O)=O)c2)C(=O)/C1=C\c1cc2ccccc2o1` [Compound 164], the pIC50 in experiment [1] and in experiment [2] (setting [3]) was greater than 5.00 in each case.

Turning to `O=C(O)c1ccc(N2N=C(c3ccoc3)/C(=C/c3ccc(CO)o3)C2=O)cc1` [Compound 247], the pIC50 in experiment [1] was greater than 4.40; in experiment [2] (setting [3]), greater than 5.00.

For the molecule `O=C(O)c1ccc(N2N=C(c3ccccn3)/C(=C/c3ccc(N4CCCC4)cc3)C2=O)cc1` [Compound 291], the pIC50 in experiment [1] and in experiment [2] (setting [3]) was 4.70 to 5.00 throughout.

On to `CC1=NN(c2ccc(S(N)(=O)=O)cc2)C(=O)/C1=C\c1ccc(OCC(=O)O)cc1` [Compound 214], for which the pIC50 was greater than 4.40 in experiment [1] and 4.70 to 5.00 in experiment [2] (setting [3]).

On to `COc1ccc(C2=NN(c3ccc(C(=O)O)cc3)C(=O)/C2=C\c2ccc(OCc3ccccc3)c(OC)c2)cc1OC` [Compound 277], for which the pIC50 was 4.70 to 5.00 in experiment [1] and greater than 5.00 in experiment [2] (setting [3]).

For `COCC1=NN(c2ccc(C(=O)O)cc2)C(=O)/C1=C\c1ccc2c(c1)OCCO2` [Compound 239], the pIC50 in experiment [1] and in experiment [2] (setting [3]) was greater than 5.00 throughout.

Consider `O=C(O)c1ccc(N2N=C(c3ccoc3)/C(=C/c3ccc(-n4ccnc4)cc3)C2=O)cc1` [Compound 250], for which the pIC50 in experiment [1] was greater than 4.40; in experiment [2] (setting [3]), greater than 5.00.

Regarding `COCC1=NN(c2ccc(C(=O)O)cc2)C(=O)/C1=C\c1nccs1` [Compound 237], the results for the pIC50 in experiment [1] and in experiment [2] (setting [3]) were greater than 4.40 and 4.70 to 5.00, respectively.

Regarding `CC1=NN(c2ccc(C(=O)O)cc2)C(=O)/C1=C\c1ccc(N2CCCC2)cc1` [Compound 256], the pIC50 was greater than 4.40 in experiment [1] and 4.70 to 5.00 in experiment [2] (setting [3]).

For the molecule `CC1=NN(c2ccc(S(N)(=O)=O)cc2)C(=O)C1=Cc1ccc(OCc2ccc([N+](=O)[O-])cc2)cc1` [Compound 216], the pIC50 was greater than 4.40 in experiment [1] and greater than 5.00 in experiment [2].

For the molecule `CC1=NN(c2ccc(C(=O)O)cc2)C(=O)/C1=C\c1ccc(Oc2ccccc2)cc1` [Compound 539], the pIC50 in experiment [1] and in experiment [2] (setting [3]) was greater than 5.00 in each case.

As for `CC1=NN(c2ccc(S(N)(=O)=O)cc2)C(=O)/C1=C\c1ccc(F)cc1` [Compound 118], the pIC50 in experiment [1] and in experiment [2] (setting [3]) was 4.70 to 5.00 each time.

With `CN1CCN(c2ccc(/C=C3\C(=O)N(c4ccc(C(=O)O)cc4)N=C3Cc3ccccc3)cc2)CC1` [Compound 274], the results for the pIC50 in experiment [1] and in experiment [2] (setting [3]) were greater than 4.40 and 4.70 to 5.00, respectively.

`COCC1=NN(c2ccccc2)C(=O)/C1=C\c1ccc2ccccc2c1` [Compound 2]: the pIC50 in experiment [1] and in experiment [2] (setting [3]) was 4.70 to 5.00 each time.

For the molecule `CC1=NN(c2ccc(S(N)(=O)=O)cc2)C(=O)/C1=C\c1ccc(-n2cccn2)cc1` [Compound 150], the pIC50 in experiment [1] and in experiment [2] (setting [3]) was greater than 5.00 each time.

For `CN1CCN(c2ccc(/C=C3\C(=O)N(c4ccc(C(=O)O)cc4)N=C3C3CC3)cc2)CC1` [Compound 321], the pIC50 is greater than 4.40 in experiment [1] and greater than 5.00 in experiment [2] (setting [3]).

Take `CC(=O)c1ccc(-c2ccc(/C=C3\C(=O)N(c4ccc(C(=O)O)cc4)N=C3C)o2)cc1` [Compound 502]: the pIC50 in experiment [1] and in experiment [2] (setting [3]) was greater than 5.00 throughout.

In the case of `CC1=NN(c2ccc(C(=O)O)cc2)C(=O)/C1=C\c1ccc2c(ccn2C(=O)c2ccccc2)c1` [Compound 528], the pIC50 in experiment [1] was greater than 4.40; in experiment [2] (setting [3]) it was greater than 5.00.

Consider `CCCCC1=NN(c2cccc(C(=O)O)c2)C(=O)/C1=C\c1ccc(N2CCCC2)cc1` [Compound 479], for which the pIC50 in experiment [1] and in experiment [2] (setting [3]) was 4.70 to 5.00 in each case.

For the molecule `CC1=NN(c2cccc(S(N)(=O)=O)c2)C(=O)C1=Cc1ccc(N2CCN(C(=O)OC(C)(C)C)CC2)cc1` [Compound 180], the pIC50 in experiment [1] is greater than 4.40; in experiment [2], 4.70 to 5.00.

For the molecule `COC(=O)N1CCN(c2ccc(C=C3C(=O)N(c4ccccc4)N=C3Cc3ccccc3)cc2)CC1` [Compound 25], the values for the pIC50 in experiment [1] and in experiment [2] were greater than 4.40 and 4.70 to 5.00, respectively.

In the case of `CC1=NN(c2ccc(C(=O)O)cc2)C(=O)/C1=C\c1ccc(-n2ccnc2)cc1` [Compound 258], the pIC50 in experiment [1] was 4.70 to 5.00; in experiment [2] (setting [3]), greater than 5.00.

Turning to `CC1=NN(c2ccccc2)C(=O)/C1=C\c1ccc(N2CCNCC2)cc1` [Compound 200], the pIC50 in experiment [1] was greater than 4.40; in experiment [2] (setting [3]), 4.70 to 5.00.

Turning to `CC1=NN(c2cccc(C(=O)O)c2)C(=O)/C1=C\c1ccc(N2CCOCC2)cc1` [Compound 441], the pIC50 was greater than 4.40 in experiment [1] and greater than 5.00 in experiment [2] (setting [3]).

As to `CC1=NN(c2cccc(C(=O)O)c2)C(=O)/C1=C\c1ccc2c(ccn2C(=O)C2CC2)c1` [Compound 530], the results for the pIC50 in experiment [1] and in experiment [2] (setting [3]) were greater than 4.40 and greater than 5.00, respectively.

Consider `COc1cc(/C=C2\C(=O)N(c3ccc(C(=O)O)cc3)N=C2C2CC2)ccc1O` [Compound 312], for which the figures for the pIC50 in experiment [1] and in experiment [2] (setting [3]) were greater than 4.40 and greater than 5.00, respectively.

On to `CC1=NN(c2ccc(C(=O)O)cc2)C(=O)C1=Cc1ccc(N2CCN(c3ccccc3)CC2)cc1` [Compound 430], for which the pIC50 in experiment [1] and in experiment [2] was greater than 5.00 in each case.

In the case of `COc1ccccc1-c1ccc(/C=C2\C(=O)N(c3cccc(C(=O)O)c3)N=C2c2ccoc2)o1` [Compound 485], the figures for the pIC50 in experiment [1] and in experiment [2] (setting [3]) were greater than 4.40 and greater than 5.00, respectively.

For the molecule `CC1=NN(c2ccc(C(=O)O)cc2)C(=O)/C1=C\c1cc2ccccc2o1` [Compound 429], the pIC50 in experiment [1] is greater than 4.40; in experiment [2] (setting [3]), greater than 5.00.
